Measured values reported in ChEMBL document CHEMBL1201862, “PubChem BioAssay data set” (2004).
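Five compound concentrations were applied to cells in 96-well plates for 48 hours; endpoints were derived by simple linear interpolation of the resulting dose-response curve. The concentration for 50% growth inhibition is given as GI50.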 Active and inactive are the calls of the source. Rule as the data show it: active = GI50 up to about 1.1 µM and inactive = higher.

Legend:
Experiment in all cases: growth of human tumour cells (NCI), 48 h
BT-549 = system: BT-549
MOLT-4 = system: MOLT-4
OVCAR-8 = system: OVCAR-8
SK-MEL-5 = system: SK-MEL-5
SNB-75 = system: SNB-75
SK-OV-3 = system: SK-OV-3
NCI/ADR-RES = system: NCI/ADR-RES
K562 = system: K562
A549 = system: A549
MDA-N = system: MDA-N
UACC-257 = system: UACC-257
OVCAR-4 = system: OVCAR-4
M14 = system: M14
UO-31 = system: UO-31
SF-268 = system: SF-268
HCT-116 = system: HCT-116
SK-MEL-2 = system: SK-MEL-2
HT-29 = system: HT-29
NCI-H460 = system: NCI-H460
HOP-18 = system: HOP-18

SMILES	GI50 (BT-549)	GI50 (MOLT-4)	GI50 (OVCAR-8)	GI50 (SK-MEL-5)	GI50 (SNB-75)	GI50 (SK-OV-3)	GI50 (NCI/ADR-RES)	GI50 (K562)	GI50 (A549)	GI50 (MDA-N)	GI50 (UACC-257)	GI50 (OVCAR-4)	GI50 (M14)	GI50 (UO-31)	GI50 (SF-268)	GI50 (HCT-116)	GI50 (SK-MEL-2)	GI50 (HT-29)	GI50 (NCI-H460)	GI50 (HOP-18)
O=C1C(=Cc2ccccc2[N+](=O)[O-])N=C(c2ccccc2)N1n1c(-c2ccccc2)nc2ccccc2c1=O	41.8 µM (inactive)	27.8 µM (inactive)	24.7 µM (inactive)	31.5 µM (inactive)	35.6 µM (inactive)	40.7 µM (inactive)	23.2 µM (inactive)	31.8 µM (inactive)	35.7 µM (inactive)	36.4 µM (inactive)	24.8 µM (inactive)	33.4 µM (inactive)	42.5 µM (inactive)	32.4 µM (inactive)	30.3 µM (inactive)	17 µM (inactive)	29.4 µM (inactive)	32.1 µM (inactive)	31.3 µM (inactive)	
O=C(Nc1ccccc1)Oc1ccccc1C1CCCCC1		14.9 µM (inactive)	29.6 µM (inactive)	13.5 µM (inactive)	6.38 µM (inactive)	44.5 µM (inactive)		17.9 µM (inactive)	20.9 µM (inactive)		16.9 µM (inactive)	14.6 µM (inactive)	23.6 µM (inactive)	13.1 µM (inactive)	36.3 µM (inactive)	21.9 µM (inactive)		20.4 µM (inactive)	20 µM (inactive)	29.3 µM (inactive)
Cc1c(C(=O)C/C(=N/NC(=O)c2ccccc2O)C(=O)Nc2ccccc2C(C)C)[n+]([O-])c2ccccc2[n+]1[O-]		3.2 µM (inactive)	29.6 µM (inactive)	43 µM (inactive)	> 100 µM (inactive)	> 100 µM (inactive)		33.7 µM (inactive)	34.7 µM (inactive)		28.1 µM (inactive)	31.8 µM (inactive)	31 µM (inactive)		33.9 µM (inactive)	27.7 µM (inactive)	0.0522 µM (active)	43.6 µM (inactive)	31.2 µM (inactive)	> 100 µM (inactive)
O=[N+]([O-])c1cc(Cl)cc2cc(Br)cnc12	28.1 µM (inactive)	> 31.6 µM (inactive)	24.1 µM (inactive)	16.7 µM (inactive)	> 31.6 µM (inactive)	> 10 µM (inactive)	> 31.6 µM (inactive)	> 31.6 µM (inactive)	> 31.6 µM (inactive)	> 31.6 µM (inactive)	31.1 µM (inactive)	> 31.6 µM (inactive)	> 31.6 µM (inactive)	> 31.6 µM (inactive)	> 10 µM (inactive)	> 31.6 µM (inactive)	39.9 µM (inactive)	> 31.6 µM (inactive)	> 31.6 µM (inactive)	
C1CN(C23OC4(N5CCOCC5)C5C6CC(C7C6C4C72)C53)CCO1 (configuration not stated)	> 100 µM (inactive)	> 100 µM (inactive)	> 100 µM (inactive)	> 100 µM (inactive)	> 70.8 µM (inactive)	> 100 µM (inactive)	> 100 µM (inactive)	> 100 µM (inactive)	> 100 µM (inactive)	> 100 µM (inactive)	> 100 µM (inactive)	> 100 µM (inactive)	> 100 µM (inactive)	> 100 µM (inactive)	> 100 µM (inactive)	> 100 µM (inactive)	> 100 µM (inactive)	> 100 µM (inactive)	> 100 µM (inactive)	
CCOC(=O)c1[nH]c(Br)c(-c2ccc(Br)cc2)c1Br	0.535 µM (active)	0.367 µM (active)	0.527 µM (active)	0.375 µM (active)	0.327 µM (active)	1.69 µM (inactive)	0.201 µM (active)	0.851 µM (active)	0.863 µM (active)	0.213 µM (active)	0.671 µM (active)	1.3 µM (inactive)	0.386 µM (active)	1.32 µM (inactive)	0.543 µM (active)	0.376 µM (active)	0.307 µM (active)	0.327 µM (active)	5.25 µM (inactive)	
C=C1CC/C=C(\C)C(=O)C[C@@H]2[C@@H]1CC2(C)C [BUDDLEDIN C]	2.45 µM (inactive)	0.184 µM (active)	4.7 µM (inactive)	2.84 µM (inactive)	10.6 µM (inactive)	20.3 µM (inactive)	4.53 µM (inactive)	1.82 µM (inactive)	13.9 µM (inactive)	1.2 µM (inactive)	4.66 µM (inactive)	0.743 µM (active)	3.69 µM (inactive)	2.62 µM (inactive)	14.1 µM (inactive)	1.17 µM (inactive)	17.5 µM (inactive)	2.44 µM (inactive)	2.62 µM (inactive)	
